Columns and labels:
FaDuDD tumors [1] = experiment: BIWI 1 combination with docetaxel in nude mice xenografted with FaDuDD tumors; type: in vivo, mouse
Method: (§1) The antibody solution was injected into the tail vein with an injection volume of 200 μl for a 25 g mouse. In the control groups without BIWI 1 treatment animals were injected i.v. with PBS. […] The solution was injected into the tail vein with an injection volume of 200 μl for a 25 g mouse. […] The solution was injected into the tail vein with an injection volume of 200 μl for a 25 g mouse.
(§2) Tumor sizes and body weights were recorded 2-3 times per week. Tumor sizes were measured with a calliper (length and width) and the volume was calculated according to the following formula: volume (length)×(width)^2×([…]). The tolerability of the treatment was monitored by measuring mouse weight during the whole observation period. […] For calculation of the mean tumor volumes per group, the last values of tumor size for individual animals were carried forward in case that these animals had to be sacrificed due to large tumor burden before the whole group was terminated. In addition to the absolute tumor volume in mm^3, the relative tumor volumes (RTV) were calculated as follows:
(§3) RTV=(tumor volume at day x)/(tumor volume at start of treatment)×100 For the evaluation of treatment efficacy the following parameters were calculated: • T/C (%)=(mean RTV of treated group)/(mean RTV of control group)×100 • T4T (tumor quadrupling time)=time until the mean RTV reaches 400% • GDF4 (growth delay factor)=T4T treated/T4T control.
(§4) In addition, for some experiments, the mean time for tumors to reach 8 times (T8T) their initial sizes were also calculated. The growth delay factor (GDF8) was then calculated accordingly. Percentages of mean relative tumor volumes of treated versus control groups (T/C) were calculated on the days indicated. For statistical evaluation of combination therapies exact Wilcoxon tests were used. Tolerability was assessed by monitoring body weight changes.
To assess the efficacy of BIWI 1 in combination with the taxane docetaxel (Taxotere), non-curative doses of both drugs were tested as single agents or in combination in nude mice xenografted with FADuDD tumors. In pilot experiments a dose of 3 mg/kg docetaxel (q7dx4) was determined to be non-curative in this model. BIWI 1 was used at the non-curative dose of 200 μg/kg DM 1 and at a somewhat higher dose (300 μg/kg DM1).
The effect was somewhat more pronounced in the two BIWI 1 monotherapy treatment groups with T/C 41-30% and GDF4: 2.8-4.4. Complete tumor regression could be observed in 1/8 cases with the higher BIWI 1 dose. […] Treatment was well tolerated in all groups, except for a slight unexplained weight loss (approx. −5%) in the docetaxel monotherapy group.

[2] = test system: antigen-positive A431 cells; experiment: In vitro cytotoxicity, MTS/PMS cell proliferation assay, A431; type: cell-based, human; conditions: 4 days exposure
Method: For determination of viable cells the Cell Titer 96® AQueous non-radioactive cell proliferation assay (Promega) was used. Five thousand cells per well were seeded into 96-well plates in 90 μl medium without phenole red. Cells were allowed to settle down for 1 to 3 h and then serial dilutions of the immunoconjugate in 10 μl PBS were added. Cells without immunoconjugate served as negative control. Cells were incubated for 4 days at 37° C. in a humified 5% CO2 atmosphere and then 20 μl MTS/PMS were added according to the manufacturer's recommendation. After additional 1 to 4 h incubation at 37° C. the absorbance at 490 nm was recorded using an ELISA plate reader. For each cell line triplicates were analyzed. The percentage of the surviving cell fraction and the IC50 value were calculated using the GraphPad Prism® (Version 3.0) software.
The in vitro cytotoxicity of BIWI 1 was evaluated using the antigen-positive cell lines A431 and FaDu, and the antigen-negative cell line […]. Cells were exposed to different concentrations of BIWI 1 for 4 days, then stained with MTS/PMS and assayed on an ELISA plate reader. The surviving fractions of cells were then calculated using the GraphPad Prism® software package.

[3] = test system: breast carcinoma xenografts; experiment: BIWI 1 (five daily doses) combination with paclitaxel in human breast carcinoma xenograft model; type: in vivo, mouse
Method: BIWI was given i.v. into the tail vein at doses of 50 μg DM1/kg/day or 100 μg DM1/kg/day for five consecutive days. Paclitaxel (Taxol®) was given i.v. at 20 or 10 mg/kg, doxorubicin (Adriamycin®) at 6 or 4 mg/kg only on the first day of the treatment period, in each case 4 hours after BIWI 1 treatment. In mice bearing breast carcinoma xenografts with a volume of approximately 100 mm3.

FaDuDD tumors [4] = experiment: BIWI 1 combination with cisplatin in nude mice xenografted with FaDuDD tumors; type: in vivo, mouse
Method: as §1, §2, §3, §4
A different set of experiments was done with cisplatin. In a pilot experiment, a dose of 4 mg/kg cisplatin administered i.v. four times in weekly intervals was determined to be non-curative in this model, and also represents the maximum tolerated dose in the mouse strain used. This dose of cisplatin was combined with BIWI 1 at the non-curative doses of 200 μg/kg DM1 and 300 Ag/kg DM1 already used in the previous experiment. […] In the latter combination group 2/8 complete tumor regressions could be observed. […] Treatment was well tolerated in all groups.

[5] = BIWI 1 200 μg/kg DM1 i.v. q7dx4
[6] = BIWI 1 300 μg/kg DM1 i.v. q7dx4

## BIWI 1
FaDuDD tumors [1]; [5]
  GDF4: 2.8
  T4T: 20.1 days
  T/C (d 16): 41%
FaDuDD tumors [1]; BIWI 1 300 μg/kg DM1 (higher dose) q7dx4
  complete tumor regression: 1/8
FaDuDD tumors [1]; [6]
  GDF4: 4.4
  T4T: 31.1 days
  T/C (d 16): 30%
[2]
  IC50: ~76 nM
[3]; BIWI 1 monotherapy 50 μg DM1/kg/day i.v., five consecutive days
  complete tumor regressions: 2/12
[3]; BIWI 1 monotherapy 50 μg DM1/kg/day x5
  T/C (median relative tumor volumes of treated versus control groups): 19%
[3]; BIWI 1 monotherapy 100 μg DM1/kg/day i.v., five consecutive days, tumors approx. 100 mm3
  Complete Regression: 12/12
FaDuDD tumors [4]; [5]
  GDF4: 2.2
  T4T: 23.2 days
  T/C (d 19): 59%
FaDuDD tumors [4]; [6]
  GDF4: 2.3
  T4T: 24.8 days
  T/C (d 19): 27%
